For assay [1], the target named is T1, H3R (Homo sapiens, UniProt Q9Y5N1).
T1 construct: the Aequoscreen line co-expresses apoaequorin
Nature of the assay: Intrinsic activity at H3R, range over both methods (LANCE Ultra cAMP and Aequoscreen). It counts as cell-based. As to conditions: read-out: IC50 at H3R, range depending on the assay method. As for the experimental part:
The Aequoscreen technology uses recombinant cell lines with stable co-expression of apoaequorin and a GPCR as a system to detect activation of the receptor, following the addition of an agonist, via the measurement of light emission. For the measurement, cells (frozen, ready to use) were thawed and resuspended in 10 mL of assay buffer containing 5 μM of coelenterazine h. The cell suspension was then placed in a 10 mL Falcon tube, fixed on a rotating wheel, and incubated overnight at RT° in the dark. Cells were diluted with assay buffer at 5000 cells/20 µL. Agonistic ligands 2 × (50 μL/well), diluted in assay buffer, were prepared in 1/2 area white polystyrene plates, and 50 μL of cell suspension was dispersed on the ligands using the injector. The light emission was recorded for 20 s. Cells were incubated with antagonist for 15 min at RT°. Then, 50 µL of agonist (final concentration equal to 3 × EC80) was injected into the mixture of cells and antagonist and light emission was recorded for 20 s. The LANCE Ultra cAMP assay as a homogeneous time-resolved fluorescence resonance energy transfer (TR-FRET) immunoassay is designed to measure cAMP produced upon the modulation of adenylyl cyclase activity by GPCRs. […] For the measurement, cells (frozen, ready to use) were thawed and resuspended in 4 mL of HBSS 1×. […]
Background: Time-resolved FRET reads energy transfer from a long-lived donor to a nearby acceptor.

In assay [2] the test system is adipose tissue. Put plainly: Histological examination of adipose tissue (Masson's trichrome). It counts as in vivo, female Wistar rats. As to conditions: palatable diet; for inflammatory infiltrates in adipose tissue (histological description) / number of adipocytes per 0.1 mm^2 of cross-sectional area / inflammatory index of the adipose tissue: KSK 10 mg/kg, phentermine 7 mg/kg; for number of adipocytes per 0.1 mm^2 of cross-sectional area: means ± SD, n = 6; for inflammatory index of the adipose tissue: standard diet + vehicle 0.5 ± 0.34. How it is done: Adipose tissue samples were prepared for histology using Masson’s trichrome stain (Merck) by fixation in 4% formaldehyde, dehydration in graded alcohol, and embedded in paraffin. The tissue samples were then sectioned using a microtome of 5 μm thickness. Six random fields from each section were analyzed in a blinded manner with an Olympus BX41 light microscope (Olympus, Tokyo, Japan) at magnifications of ×20, ×40 and ×100, and digital images were captured with an Olympus UC90 color camera. The quantitation of the number of adipocytes was performed in eight fields/slide with ×100 objective using an image analysis system: CellSensDimension (Olympus, Tokyo, Japan). The numerical density of the adipocytes was obtained by counting the total number of adipocytes per high-power field ([…]), and then this number was converted to 0.1 mm^2. According to stereometric rules, adipocytes tangent to the left and top edges of the image field were not counted. A semi-quantitative scale was used to assess the inflammatory response in adipose tissue. The following were evaluated on a subjective scale: inflammatory cell infiltration between adipocytes (0—normal, 1—few cells, 2—local clusters, and 3—extensive infiltrates), perivascular infiltration of immune cells (0—normal, 1—few cells, and 2—ring of inflammatory cells), widening of the septum (0—normal and 1—widening), and capillary congestion (0—normal and 1—congestion). A sum calculated from independently assessed values was calculated for each animal as an index of inflammation.

Broadly, the IC50 is the midpoint of a concentration-inhibition curve.

T1 sequence (Q9Y5N1 whole entry): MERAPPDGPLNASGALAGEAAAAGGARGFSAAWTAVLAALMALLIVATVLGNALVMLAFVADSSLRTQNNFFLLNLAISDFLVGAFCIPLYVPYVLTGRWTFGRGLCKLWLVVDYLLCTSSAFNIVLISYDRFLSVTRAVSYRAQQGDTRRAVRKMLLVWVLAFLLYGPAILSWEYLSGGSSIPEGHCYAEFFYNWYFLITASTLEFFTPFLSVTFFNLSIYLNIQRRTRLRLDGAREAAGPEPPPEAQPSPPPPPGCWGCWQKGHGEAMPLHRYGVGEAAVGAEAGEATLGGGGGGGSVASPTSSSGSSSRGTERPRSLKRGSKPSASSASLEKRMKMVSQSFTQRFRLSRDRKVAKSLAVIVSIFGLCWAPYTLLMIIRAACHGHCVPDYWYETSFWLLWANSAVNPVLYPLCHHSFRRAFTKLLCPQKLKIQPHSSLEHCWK

As for `CCC(=O)c1ccc(OCCCCCCCCN2CCN(c3ccncc3)CC2)cc1` [KSK-74], in assay [1], the IC50 lay within 23 to 32 nM. Also, in assay [2], the “inflammatory infiltrates in adipose tissue (histological description)” value was “slightly less inflammatory infiltrates”, the “number of adipocytes per 0.1 mm^2 of cross-sectional area” value was 34.78 ± 4.78 per 0.1 mm^2 and the “inflammatory index of the adipose tissue” value is reported as “comparable to the standard control”. Further, in assay [2] (n = 6 per group), the “number of rats, Capillary Congestion grade 0-Normal” value was 5; the “number of rats, Capillary Congestion grade 1-Congestion” value was 1; the “number of rats, Inflammatory Cell Infiltration grade 0-Normal” value is recorded as 1; the “number of rats, Inflammatory Cell Infiltration grade 1-Few Cells” value is reported as 3. Also, in assay [2] (n = 6 per group), the “number of rats, Inflammatory Cell Infiltration grade 2-Local Clusters” value was found to be 2; the “number of rats, Perivascular Infiltration grade 0-Normal” value worked out at 2; the “number of rats, Perivascular Infiltration grade 1-Few Cells” value was 1; the “number of rats, Perivascular Infiltration grade 2-Ring of Cells” value is 3. Also, in assay [2] (n = 6 per group), the “number of rats, Widening of the Septum grade 0-Normal” value came out at 3 and the “number of rats, Widening of the Septum grade 1-Widening” value turned out to be 3.
As for `CCC(=O)c1ccc(OCCCCCCN2CCN(c3ccncc3)CC2)cc1` [KSK-60], the half-maximal inhibitory concentration (IC50) in assay [1] was in the range of 0.8 to 1.5 nM. Also, in assay [2], the “inflammatory infiltrates in adipose tissue (histological description)” value is “Many inflammatory cells infiltrated the area of adipocytes and the perivascular area”; the “number of adipocytes per 0.1 mm^2 of cross-sectional area” value is on record as 18.02 ± 1.38 per 0.1 mm^2; the “inflammatory index of the adipose tissue” value was 4.5 ± 0.80. Besides, in assay [2] (n = 6 per group), the “number of rats, Capillary Congestion grade 0-Normal” value is listed as 2; the “number of rats, Capillary Congestion grade 1-Congestion” value stood at 4; the “number of rats, Inflammatory Cell Infiltration grade 1-Few Cells” value worked out at 2; the “number of rats, Inflammatory Cell Infiltration grade 2-Local Clusters” value is recorded as 4. For the same compound, in assay [2] (n = 6 per group), the “number of rats, Perivascular Infiltration grade 1-Few Cells” value was 2; the “number of rats, Perivascular Infiltration grade 2-Ring of Cells” value turned out to be 4; the “number of rats, Widening of the Septum grade 0-Normal” value is listed as 1; the “number of rats, Widening of the Septum grade 1-Widening” value stood at 5.

The values are drawn from paper PMC9266460, “KSK-74: Dual Histamine H3 and Sigma-2 Receptor Ligand with Anti-Obesity Potential” (International Journal of Molecular Sciences, 2022).
